Data reported in PubChem BioAssay AID1259407 (Chemical Carcinogenesis Research Information System (CCRIS), 2018).
Activity calls are given as the source filed them. How the calls were made is not given here.

System: CCRIS mutagenicity, Ames/micronucleus/aberration tests
Assay: CCRIS mutagenicity studies
[1] = Test System: AMES SALMONELLA TYPHIMURIUM, Strain/Indicator: TA98, Metabolic Activation: NONE, Method: PREINCUBATION
[2] = Test System: AMES SALMONELLA TYPHIMURIUM, Strain/Indicator: TA100, Metabolic Activation: NONE, Method: PREINCUBATION
[3] = Test System: AMES SALMONELLA TYPHIMURIUM, Strain/Indicator: TA98, Metabolic Activation: NONE, Method: STANDARD PLATE
[4] = Test System: AMES SALMONELLA TYPHIMURIUM, Strain/Indicator: TA100, Metabolic Activation: NONE, Method: STANDARD PLATE
[5] = Test System: AMES SALMONELLA TYPHIMURIUM, Strain/Indicator: TA1535, Metabolic Activation: HAMSTER, LIVER, S-9, AROCLOR 1254, Method: PREINCUBATION
[6] = Test System: AMES SALMONELLA TYPHIMURIUM, Strain/Indicator: TA1535, Metabolic Activation: NONE, Method: PREINCUBATION
[7] = Test System: AMES SALMONELLA TYPHIMURIUM, Strain/Indicator: TA1535, Metabolic Activation: RAT, LIVER, S-9, AROCLOR 1254, Method: PREINCUBATION
[8] = Test System: AMES SALMONELLA TYPHIMURIUM, Strain/Indicator: TA98, Metabolic Activation: RAT, LIVER, S-9, AROCLOR 1254, Method: STANDARD PLATE

Question: How did the mutagenic call [1] turn out when `O=C(Cl)c1ccccc1C(=O)Cl` was run?
Answer: The mutagenic call was “active; positive”.

Question: What about the mutagenic call (Test System: AMES SALMONELLA TYPHIMURIUM, Strain/Indicator: TA98, Metabolic Activation: RAT LIVER S-9, PCB, Method: PREINCUBATION) of the same compound?
Answer: Its mutagenic call is “active; positive”.

Question: What about the mutagenic call [2] of the same compound?
Answer: Its mutagenic call is “active; positive”.

Question: And the mutagenic call (Test System: AMES SALMONELLA TYPHIMURIUM, Strain/Indicator: TA100, Metabolic Activation: RAT LIVER S-9, PCB, Method: PREINCUBATION)?
Answer: Its mutagenic call is “active; positive”.

Question: And the mutagenic call (Test System: AMES SALMONELLA TYPHIMURIUM, Strain/Indicator: TA104, Metabolic Activation: NONE, Method: PREINCUBATION)?
Answer: The mutagenic call was “active; positive”.

Question: What about the mutagenic call (Test System: AMES SALMONELLA TYPHIMURIUM, Strain/Indicator: TA104, Metabolic Activation: RAT LIVER S-9, PCB, Method: PREINCUBATION) of the same compound?
Answer: The mutagenic call was “active; positive”.

Question: What about the mutagenic call (Test System: E.COLI, Strain/Indicator: WP2 UVRA, Metabolic Activation: NONE, Method: PREINCUBATION) of the same compound?
Answer: Its mutagenic call is “active; positive”.

Question: What about the mutagenic call (Test System: E.COLI, Strain/Indicator: WP2 UVRA, Metabolic Activation: RAT LIVER S-9, PCB, Method: PREINCUBATION) of the same compound?
Answer: The mutagenic call was “active; positive”.

Question: What does the source list for `S=P(N1CC1)(N1CC1)N1CC1`?
Answer: mutagenic call (Test System: AMES SALMONELLA TYPHIMURIUM, Strain/Indicator: TA98, Metabolic Activation: HAMSTER, LIVER, S-9, AROCLOR 1254 (30%), Method: PREINCUBATION): inactive; negative; mutagenic call [1]: inactive; negative; mutagenic call [3]: inactive; negative; mutagenic call (Test System: AMES SALMONELLA TYPHIMURIUM, Strain/Indicator: TA98, Metabolic Activation: RAT, LIVER, S-9, AROCLOR 1254 (30%), Method: PREINCUBATION): inactive; negative; mutagenic call (Test System: AMES SALMONELLA TYPHIMURIUM, Strain/Indicator: TA100, Metabolic Activation: HAMSTER, LIVER, S-9, AROCLOR 1254 (30%), Method: PREINCUBATION): active; positive; mutagenic call [2]: active; positive; mutagenic call [4]: active; positive; mutagenic call (Test System: AMES SALMONELLA TYPHIMURIUM, Strain/Indicator: TA100, Metabolic Activation: RAT, LIVER, S-9, AROCLOR 1254 (30%), Method: PREINCUBATION): active; positive; mutagenic call (Test System: AMES SALMONELLA TYPHIMURIUM, Strain/Indicator: TA1535, Metabolic Activation: NONE, Method: STANDARD PLATE): active; positive; mutagenic call (Test System: AMES SALMONELLA TYPHIMURIUM, Strain/Indicator: TA1537, Metabolic Activation: NONE, Method: STANDARD PLATE): inactive; negative; mutagenic call (Test System: CHINESE HAMSTER V-79, Strain/Indicator: V-79/6-THIOGUANINE, Metabolic Activation: NONE, Method: FLASK ASSAY): inactive; negative; mutagenic call (Test System: E. COLI, Strain/Indicator: WP2 (HCR), Metabolic Activation: NONE, Method: STANDARD PLATE): active; positive

Question: Which mutagenic call (Test System: Ames Salmonella typhimurium, Strain/Indicator: TA98, Metabolic Activation: None, Method: Preincubation) does the source give for `O=C(O)CCSCCC(=O)O` here?
Answer: The mutagenic call was “inactive; negative”.

Question: What about the mutagenic call (Test System: Ames Salmonella typhimurium, Strain/Indicator: TA98, Metabolic Activation: Rat, Liver, S-9, Phenobarbital and 5,6-benzoflavone, Method: Preincubation) of the same compound?
Answer: The mutagenic call was “inactive; negative”.

Question: What about the mutagenic call (Test System: Ames Salmonella typhimurium, Strain/Indicator: TA100, Metabolic Activation: None, Method: Preincubation) of the same compound?
Answer: The mutagenic call was “inactive; negative”.

Question: What about the mutagenic call (Test System: Ames Salmonella typhimurium, Strain/Indicator: TA100, Metabolic Activation: Rat, Liver, S-9, Phenobarbital and 5,6-benzoflavone, Method: Preincubation) of the same compound?
Answer: The mutagenic call was “inactive; negative”.

Question: What about the mutagenic call (Test System: Ames Salmonella typhimurium, Strain/Indicator: TA1535, Metabolic Activation: None, Method: Preincubation) of the same compound?
Answer: Its mutagenic call is “inactive; negative”.

Question: What about the mutagenic call (Test System: Ames Salmonella typhimurium, Strain/Indicator: TA1535, Metabolic Activation: Rat, Liver, S-9, Phenobarbital and 5,6-benzoflavone, Method: Preincubation) of the same compound?
Answer: Its mutagenic call is “inactive; negative”.

Question: And the mutagenic call (Test System: Ames Salmonella typhimurium, Strain/Indicator: TA1537, Metabolic Activation: None, Method: Preincubation)?
Answer: Its mutagenic call is “inactive; negative”.

Question: What about the mutagenic call (Test System: Ames Salmonella typhimurium, Strain/Indicator: TA1537, Metabolic Activation: Rat, Liver, S-9, Phenobarbital and 5,6-benzoflavone, Method: Preincubation) of the same compound?
Answer: Its mutagenic call is “inactive; negative”.

Question: And the mutagenic call (Test System: E. coli, Strain/Indicator: WP2uvrA/pKM101, Metabolic Activation: None, Method: Preincubation)?
Answer: Its mutagenic call is “inactive; negative”.

Question: What about the mutagenic call (Test System: E. coli, Strain/Indicator: WP2uvrA/pKM101, Metabolic Activation: Rat, Liver, S-9, Phenobarbital and 5,6-benzoflavone, Method: Preincubation) of the same compound?
Answer: Its mutagenic call is “inactive; negative”.

Question: Which mutagenic call (Test System: E. COLI B, Strain/Indicator: H/R30R, Metabolic Activation: NONE) does the source give for `CC(C)CN(N=O)C(N)=O` here?
Answer: The mutagenic call was “active; positive”.

Question: And the mutagenic call (Test System: E. COLI B, Strain/Indicator: HS30R, Metabolic Activation: NONE)?
Answer: Its mutagenic call is “active; positive”.

Question: Which results are given for `CCN=[N+]([O-])CC`?
Answer: mutagenic call [5]: inactive; negative; mutagenic call [6]: inactive; negative; mutagenic call [7]: inactive; negative

Question: Which results are given for `Nc1cc([N+](=O)[O-])cc([N+](=O)[O-])c1`?
Answer: mutagenic call [1]: active; positive; mutagenic call [3]: active; positive; mutagenic call [8]: active; positive; mutagenic call (Test System: AMES SALMONELLA TYPHIMURIUM, Strain/Indicator: TA98, Metabolic Activation: RAT, LIVER, S-9, KANECHLOR 500, Method: PREINCUBATION): active; positive; mutagenic call [2]: active; positive; mutagenic call [4]: active; positive; mutagenic call (Test System: AMES SALMONELLA TYPHIMURIUM, Strain/Indicator: TA100, Metabolic Activation: RAT, LIVER, S-9, AROCLOR 1254, Method: STANDARD PLATE): active; positive; mutagenic call (Test System: AMES SALMONELLA TYPHIMURIUM, Strain/Indicator: TA100, Metabolic Activation: RAT, LIVER, S-9, KANECHLOR 500, Method: PREINCUBATION): active; positive

Question: How did the mutagenic call (Test System: AMES SALMONELLA TYPHIMURIUM, Strain/Indicator: TA97, Metabolic Activation: RAT, LIVER, S-9, AROCLOR 1254 (4 OR 10%), Method: STANDARD PLATE) turn out when `CCOc1ccc(N)cc1N` was run?
Answer: The mutagenic call was “active; positive”.

Question: And the mutagenic call (Test System: AMES SALMONELLA TYPHIMURIUM, Strain/Indicator: TA1537, Metabolic Activation: RAT, LIVER, S-9, AROCLOR 1254 (4 OR 10%), Method: STANDARD PLATE)?
Answer: The mutagenic call was “active; positive”.

Question: What about the mutagenic call (Test System: AMES SALMONELLA TYPHIMURIUM, Strain/Indicator: TA1538, Metabolic Activation: RAT, LIVER, S-9, AROCLOR 1254 (4 OR 10%), Method: STANDARD PLATE) of the same compound?
Answer: The mutagenic call was “active; positive”.

Question: `O=CNc1ccc2c(c1)Cc1ccccc1-2` was tested. Which mutagenic call [8] did it give?
Answer: Its mutagenic call is “active; positive”.

Question: Which results are given for `c1cc2cnncc2cn1`?
Answer: mutagenic call [1]: inactive; negative; mutagenic call (Test System: AMES SALMONELLA TYPHIMURIUM, Strain/Indicator: TA98, Metabolic Activation: RAT, LIVER, S-9, PCB, Method: PREINCUBATION): inactive; negative; mutagenic call [2]: inactive; negative; mutagenic call (Test System: AMES SALMONELLA TYPHIMURIUM, Strain/Indicator: TA100, Metabolic Activation: RAT, LIVER, S-9, PCB, Method: PREINCUBATION): inactive; negative

Question: With `CCCCl` as the compound, how does the mutagenic call (End Point: In vitro micronucleus, Test System: Chinese Hamster Ovary (CHO-WBL) cells, Metabolic Activation: None) read?
Answer: Its mutagenic call is “inactive; negative”.

Question: `Cn1cnc(N=O)c1-c1ccccc1` was tested. Which mutagenic call [4] did it give?
Answer: Its mutagenic call is “active; positive”.

Question: How did the mutagenic call (End Point: IN VITRO CHROMOSOMAL ABERRATIONS, Test System: CHO-LB CELLS, Metabolic Activation: NONE) turn out when `Clc1cc(Cl)c(Cl)c(Cl)c1` was run?
Answer: Its mutagenic call is “inactive; negative”.

Question: What about the mutagenic call (End Point: IN VITRO CHROMOSOMAL ABERRATIONS, Test System: CHO-LB CELLS, Metabolic Activation: RAT, LIVER, S-9, AROCLOR 1254) of the same compound?
Answer: Its mutagenic call is “inactive; negative”.

Question: And the mutagenic call (Test System: AMES SALMONELLA TYPHIMURIUM, Strain/Indicator: TA98, Metabolic Activation: HAMSTER, LIVER, S-9, AROCLOR 1254, Method: PREINCUBATION)?
Answer: The mutagenic call was “inactive; negative”.

Question: What about the mutagenic call [1] of the same compound?
Answer: Its mutagenic call is “inactive; negative”.

Question: And the mutagenic call (Test System: AMES SALMONELLA TYPHIMURIUM, Strain/Indicator: TA98, Metabolic Activation: RAT, LIVER, S-9, AROCLOR 1254, Method: PREINCUBATION)?
Answer: Its mutagenic call is “inactive; negative”.

Question: What about the mutagenic call (Test System: AMES SALMONELLA TYPHIMURIUM, Strain/Indicator: TA100, Metabolic Activation: HAMSTER, LIVER, S-9, AROCLOR 1254, Method: PREINCUBATION) of the same compound?
Answer: Its mutagenic call is “inactive; negative”.

Question: What about the mutagenic call [2] of the same compound?
Answer: The mutagenic call was “inactive; negative”.

Question: What about the mutagenic call (Test System: AMES SALMONELLA TYPHIMURIUM, Strain/Indicator: TA100, Metabolic Activation: RAT, LIVER, S-9, AROCLOR 1254, Method: PREINCUBATION) of the same compound?
Answer: The mutagenic call was “inactive; negative”.

Question: And the mutagenic call [5]?
Answer: The mutagenic call was “inactive; negative”.

Question: What about the mutagenic call [6] of the same compound?
Answer: Its mutagenic call is “inactive; negative”.

Question: And the mutagenic call [7]?
Answer: Its mutagenic call is “inactive; negative”.

Question: What about the mutagenic call (Test System: AMES SALMONELLA TYPHIMURIUM, Strain/Indicator: TA1537, Metabolic Activation: HAMSTER, LIVER, S-9, AROCLOR 1254, Method: PREINCUBATION) of the same compound?
Answer: The mutagenic call was “inactive; negative”.

Question: What about the mutagenic call (Test System: AMES SALMONELLA TYPHIMURIUM, Strain/Indicator: TA1537, Metabolic Activation: NONE, Method: PREINCUBATION) of the same compound?
Answer: The mutagenic call was “inactive; negative”.

Question: And the mutagenic call (Test System: AMES SALMONELLA TYPHIMURIUM, Strain/Indicator: TA1537, Metabolic Activation: RAT, LIVER, S-9, AROCLOR 1254, Method: PREINCUBATION)?
Answer: The mutagenic call was “inactive; negative”.
